Columns and labels:
Format in all cases: in vivo
[1] = tested on: barnyardgrass (Echinochloa crus-galli); assay: Test B flooded paddy test; details: Echinochloa crus-galli, 250 g ai/ha, Flood; 0 to 100 scale where 0 is no effect and 100 is complete control; read-out: Barnyardgrass plant response rating
Method in brief: (§1)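 Response scored visually against untreated controls, 0 = no effect and 100 = complete control, 13–15 d after treatment in the greenhouse. Compounds added to paddy water held 3 cm above soil surface. Treatment given at 2-leaf stage.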

rice (Oryra sativa) = assay: Test B flooded paddy test; details: Oryza sativa, 250 g ai/ha, Flood; 0 to 100 scale where 0 is no effect and 100 is complete control; read-out: Rice plant response rating
Method in brief: as §1

[2] = tested on: sedge, umbrella (small-flower umbrella sedge, Cyperus difformis); assay: Test B flooded paddy test; details: Cyperus difformis, 250 g ai/ha, Flood; 0 to 100 scale where 0 is no effect and 100 is complete control; read-out: Sedge, Umbrella plant response rating
Method in brief: as §1

[3] = tested on: ducksalad (Heteranthera limosa); assay: Test B flooded paddy test; details: Heteranthera limosa, 250 g ai/ha, Flood; 0 to 100 scale where 0 is no effect and 100 is complete control; read-out: Ducksalad plant response rating
Method in brief: as §1

[4] = tested on: blackgrass (Alopecurus myosuroides); assay: Test A postemergence; details: Alopecurus myosuroides, post-emergence, 240 h, read-out: Plant response rating, Blackgrass; for pest or weed control at 125 g/ha: 125 g ai/ha, Postemergence, visual injury after approximately 10 d, 0 to 100 scale where 0 is no effect and 100 is complete control; for pest or weed control at 500 g/ha: 500 g ai/ha, postemergence, visual injury, 0 to 100 scale (0 no effect, 100 complete control), approx. 10 d
Method in brief: (§2)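 Visual injury, scored on a 0–100 scale relative to untreated controls, was recorded about 10 d after application. Treatments were a preemergence soil spray over planted seeds or a postemergence spray on plants at the one- to two-leaf stage, 2 to 10 cm tall, all in loam soil–sand blend in the greenhouse.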

[5] = tested on: Galium (catchweed bedstraw, Galium aparine); assay: Test A postemergence; details: Galium, post-emergence, 240 h, postemergence, approx. 10 d; for pest or weed control at 125 g/ha: 125 g ai/ha, visual injury on 0 to 100 scale (0 no effect, 100 complete control), read-out: Galium plant response rating; for pest or weed control at 500 g/ha: 500 g ai/ha, visual injury, 0 to 100 scale (0 no effect, 100 complete control), read-out: Plant response rating, Galium
Method in brief: as §2

[6] = tested on: barnyardgrass (Echinochloa crus-galli); assay: Test A postemergence; details: Echinochloa crus-galli, post-emergence, 240 h, read-out: Plant response rating, Barnyardgrass; for pest or weed control at 125 g/ha: 125 g ai/ha, Postemergence, visual injury after approximately 10 d, 0 to 100 scale where 0 is no effect and 100 is complete control; for pest or weed control at 500 g/ha: 500 g ai/ha, postemergence, visual injury, 0 to 100 scale (0 no effect, 100 complete control), approx. 10 d
Method in brief: as §2

[7] = tested on: ryegrass, Italian (Italian ryegrass, Lolium multiflorum); assay: Test A postemergence; details: Lolium multiflorum, post-emergence, 240 h, postemergence, approx. 10 d; for pest or weed control at 125 g/ha: 125 g ai/ha, visual injury on 0 to 100 scale (0 no effect, 100 complete control), read-out: Ryegrass, Italian plant response rating; for pest or weed control at 500 g/ha: 500 g ai/ha, visual injury, 0 to 100 scale (0 no effect, 100 complete control), read-out: Plant response rating, Ryegrass, Italian
Method in brief: as §2

Kochia (Kochia scoparia) = assay: Test A postemergence; details: Bassia scoparia, post-emergence, 240 h, postemergence, approx. 10 d; for pest or weed control at 125 g/ha: 125 g ai/ha, visual injury on 0 to 100 scale (0 no effect, 100 complete control), read-out: Kochia plant response rating; for pest or weed control at 500 g/ha: 500 g ai/ha, visual injury, 0 to 100 scale (0 no effect, 100 complete control), read-out: Plant response rating, Kochia
Method in brief: as §2

[8] = tested on: wheat (Triticum aestivum); assay: Test A postemergence; details: Triticum aestivum, post-emergence, 240 h, postemergence, approx. 10 d; for plant injury at 125 g/ha: 125 g ai/ha, visual injury on 0 to 100 scale (0 no effect, 100 complete control), read-out: Wheat plant response rating; for plant injury at 500 g/ha: 500 g ai/ha, visual injury, 0 to 100 scale (0 no effect, 100 complete control), read-out: Plant response rating, Wheat
Method in brief: as §2

[9] = tested on: pigweed (Amaranthus retroflexus); assay: Test A postemergence; details: Amaranthus retroflexus, post-emergence, 240 h, postemergence, approx. 10 d; for pest or weed control at 125 g/ha: 125 g ai/ha, visual injury on 0 to 100 scale (0 no effect, 100 complete control), read-out: Pigweed plant response rating; for pest or weed control at 500 g/ha: 500 g ai/ha, visual injury, 0 to 100 scale (0 no effect, 100 complete control), read-out: Plant response rating, Pigweed
Method in brief: as §2

corn (Zea mays) = assay: Test A postemergence; details: Zea mays, post-emergence, 240 h; for Corn plant response rating (crop injury, 0 = no effect, 100 = complete kill) at 125 g/ha: 125 g ai/ha, Postemergence, visual injury after approximately 10 d, 0 to 100 scale where 0 is no effect and 100 is complete control; for Corn plant response rating (crop injury, 0 = no effect, 100 = complete kill) at 500 g/ha: 500 g ai/ha, postemergence, visual injury, 0 to 100 scale (0 no effect, 100 complete control), approx. 10 d
Method in brief: as §2

[10] = tested on: giant foxtail (Setaria faberii); assay: Test A postemergence; details: Setaria faberi, post-emergence, 240 h, postemergence, approx. 10 d; for pest or weed control at 125 g/ha: 125 g ai/ha, visual injury on 0 to 100 scale (0 no effect, 100 complete control), read-out: Foxtail, Giant plant response rating; for pest or weed control at 500 g/ha: 500 g ai/ha, visual injury, 0 to 100 scale (0 no effect, 100 complete control), read-out: Plant response rating, Foxtail, Giant
Method in brief: as §2

[11] = tested on: ragweed (common ragweed, Ambrosia elatior); assay: Test A postemergence; details: Ambrosia artemisiifolia, post-emergence, 240 h, postemergence, approx. 10 d; for pest or weed control at 125 g/ha: 125 g ai/ha, visual injury on 0 to 100 scale (0 no effect, 100 complete control), read-out: Ragweed plant response rating; for pest or weed control at 500 g/ha: 500 g ai/ha, visual injury, 0 to 100 scale (0 no effect, 100 complete control), read-out: Plant response rating, Ragweed
Method in brief: as §2

[12] = tested on: ragweed (common ragweed, Ambrosia elatior); assay: Test A preemergence; details: Ambrosia artemisiifolia, pre-emergence, 240 h; for pest or weed control at 125 g/ha: 125 g ai/ha, Preemergence, visual injury rating after approximately 10 d, read-out: Ragweed plant response rating (0 to 100 scale, 0 is no effect, 100 is complete control); for pest or weed control at 500 g/ha: 500 g ai/ha, preemergence, visual injury rating about 10 d after treatment, 0 to 100 scale (0 no effect, 100 complete control), read-out: Ragweed plant response rating
Method in brief: as §2

Row | SMILES | pest or weed control at 250 g/ha [1] | pest or weed control at 250 g/ha (rice (Oryra sativa)) | pest or weed control at 250 g/ha [2] | pest or weed control at 250 g/ha [3] | pest or weed control at 125 g/ha [4] | pest or weed control at 500 g/ha [4] | pest or weed control at 125 g/ha [5] | pest or weed control at 500 g/ha [5] | pest or weed control at 125 g/ha [6] | pest or weed control at 500 g/ha [6] | pest or weed control at 125 g/ha [7] | pest or weed control at 500 g/ha [7] | pest or weed control at 125 g/ha (Kochia (Kochia scoparia)) | pest or weed control at 500 g/ha (Kochia (Kochia scoparia)) | plant injury at 125 g/ha [8] | plant injury at 500 g/ha [8] | pest or weed control at 125 g/ha [9] | pest or weed control at 500 g/ha [9] | Corn plant response rating (crop injury, 0 = no effect, 100 = complete kill) at 125 g/ha (corn (Zea mays)) | Corn plant response rating (crop injury, 0 = no effect, 100 = complete kill) at 500 g/ha (corn (Zea mays)) | further results
1 | Cc1ccc([C@H]2CNC(=O)[C@@H]2C(=O)Nc2ccccc2F)cc1C [Compound 1033] | 50% | 0% | 0% | 100% | 0% | 40% | 40% | 60% | 90% | 90% | 0% | 20% | 0% | 0% | 0% | 0% | 0% | 0% | 0% | 40% | pest or weed control at 125 g/ha [10]: 30%; pest or weed control at 500 g/ha [10]: 80%; pest or weed control at 125 g/ha [11]: 0%; pest or weed control at 500 g/ha [11]: 30%; pest or weed control at 125 g/ha [12]: 0%; pest or weed control at 500 g/ha [12]: 10%
2 | Cc1ccc([C@H]2CNC(=O)[C@@H]2C(=O)Nc2cccc(F)c2C)cc1C [Compound 1035] | 50% | 0% | 0% | 100% | 40% | 60% | 20% | 50% | 90% | 90% | 40% | 60% | 0% | 20% | 20% | 70% | 0% | 0% | 50% | 60% | pest or weed control at 125 g/ha [10]: 50%; pest or weed control at 500 g/ha [10]: 90%; pest or weed control at 125 g/ha [11]: 0%; pest or weed control at 500 g/ha [11]: 0%; pest or weed control at 125 g/ha [12]: 20%; pest or weed control at 500 g/ha [12]: 70%

— patent US12077503B2, “Substituted cyclic amides and their use as herbicides” (FMC CORPORATION, priority 2015, dated 2024)
